Test results as given in ChEMBL document CHEMBL5137067, “Spiro-naphthyridine Antagonists of the Melanocortin Receptor 4 for the Treatment of Cachexia Associated with Chronic Illness” (ACS Med Chem Lett, 2022).

What was measured:
Melanocortin receptor 4 [1] = target: T1, Melanocortin receptor 4 (Homo sapiens, UniProt P32245); experiment: Antagonist activity at human MC4R expressed in CHO cells assessed as decrease in alpha-MSH induced cAMP level by measuring equilibrium binding constant preincubated for 30 mins followed by alpha-MSH addition measured after 30 mins by HTRF method; assay type: functional, cell-based; conditions: time 60.0 min
T1 sequence (P32245 whole entry): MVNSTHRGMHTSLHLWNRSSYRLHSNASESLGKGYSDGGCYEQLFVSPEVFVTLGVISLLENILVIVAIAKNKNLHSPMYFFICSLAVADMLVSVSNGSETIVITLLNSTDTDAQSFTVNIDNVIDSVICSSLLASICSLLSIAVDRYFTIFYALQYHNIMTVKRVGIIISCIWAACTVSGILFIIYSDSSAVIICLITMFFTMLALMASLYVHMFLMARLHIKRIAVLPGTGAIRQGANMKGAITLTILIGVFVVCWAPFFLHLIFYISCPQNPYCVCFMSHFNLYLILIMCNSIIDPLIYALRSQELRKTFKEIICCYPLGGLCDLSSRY

Melanocortin receptor 4 [2] = target: T1, Melanocortin receptor 4; experiment: Displacement of [125I]-[Nle4-D-phe7]-alpha-MSH from to human MC4R expressed in CHO cells incubated for 2 hrs by liquid scintillation counting method; assay type: cell-based

Kb (Melanocortin receptor 4 [1]; filed as antagonist) | Ki (Melanocortin receptor 4 [2]) | Kb (Melanocortin receptor 4 [1]) | Compound
0.08 nM | – | – | COc1cc([C@@H](C)C(=O)N2CC[C@@]3(CCc4cc(-c5nc(C(F)F)n(C)n5)c(C)nc4N3)C2)c(Cl)cn1
0.18 nM | 0.54 nM | – | Cc1nc2c(cc1-c1ncccn1)CC[C@@]1(CCN(C(=O)C(C)c3cc(OC(F)F)ncc3Cl)C1)N2 (single isomer, unassigned)
8.5 nM | – | – | Cc1nc2c(cc1-c1ncccn1)CC[C@@]1(CCN(C(=O)[C@@H](C)c3ccc(OC(F)F)nc3)C1)N2
0.07 nM | 0.28 nM | – | COc1cc([C@@H](C)C(=O)N2CC[C@@]3(CCc4cc(-c5nc6ccccn6n5)c(C)nc4N3)C2)c(Cl)cn1
0.4 nM | – | – | COc1cc(OC)cc([C@@H](C)C(=O)N2CCC3(CCc4cc(-c5cnn(C)c5)c(C)nc4N3)C2)c1 (single isomer, unassigned)
0.049 nM | – | – | COc1cc([C@@H](C)C(=O)N2CC[C@@]3(CCc4cc(-c5nnn(C)n5)c(C)nc4N3)C2)c(Cl)cn1
– | 82 nM | > 96 nM | Cc1nc2c(cc1-c1ncccn1)CC[C@@]1(CCN(C(=O)C(C)c3ccc(Cl)cc3Cl)C1)N2 (stereo partly drawn)
– | 57 nM | – | Cc1nc2c(cc1-c1cnn(C)c1)CC[C@@]1(CCN(C(=O)C(C)c3ccc(OC(F)F)nc3)C1)N2 (stereo partly drawn)
– | > 200 nM | – | Cc1nc2c(cc1-c1ncccn1)CC[C@@]1(CCN(C(=O)[C@H](C)c3ccc(OC(F)F)nc3)C1)N2
1.2 nM | – | – | COc1cc([C@@H](C)C(=O)N2CC[C@]3(CCc4cc(-c5nnn(C)n5)c(C)nc4N3)C2)c(Cl)cn1
